{
  "source": "patent US20090239872A1",
  "about": "“TREATMENT OF MESOTHELIOMA” (priority 2002, published 2009)",
  "origin": "cited, not measured here",
  "details_in_all_cases": "qualitative statement",
  "key": {"c-Kit": {"target": "c-Kit (Homo sapiens, UniProt P10721)", "sequence (P10721 26-976)": "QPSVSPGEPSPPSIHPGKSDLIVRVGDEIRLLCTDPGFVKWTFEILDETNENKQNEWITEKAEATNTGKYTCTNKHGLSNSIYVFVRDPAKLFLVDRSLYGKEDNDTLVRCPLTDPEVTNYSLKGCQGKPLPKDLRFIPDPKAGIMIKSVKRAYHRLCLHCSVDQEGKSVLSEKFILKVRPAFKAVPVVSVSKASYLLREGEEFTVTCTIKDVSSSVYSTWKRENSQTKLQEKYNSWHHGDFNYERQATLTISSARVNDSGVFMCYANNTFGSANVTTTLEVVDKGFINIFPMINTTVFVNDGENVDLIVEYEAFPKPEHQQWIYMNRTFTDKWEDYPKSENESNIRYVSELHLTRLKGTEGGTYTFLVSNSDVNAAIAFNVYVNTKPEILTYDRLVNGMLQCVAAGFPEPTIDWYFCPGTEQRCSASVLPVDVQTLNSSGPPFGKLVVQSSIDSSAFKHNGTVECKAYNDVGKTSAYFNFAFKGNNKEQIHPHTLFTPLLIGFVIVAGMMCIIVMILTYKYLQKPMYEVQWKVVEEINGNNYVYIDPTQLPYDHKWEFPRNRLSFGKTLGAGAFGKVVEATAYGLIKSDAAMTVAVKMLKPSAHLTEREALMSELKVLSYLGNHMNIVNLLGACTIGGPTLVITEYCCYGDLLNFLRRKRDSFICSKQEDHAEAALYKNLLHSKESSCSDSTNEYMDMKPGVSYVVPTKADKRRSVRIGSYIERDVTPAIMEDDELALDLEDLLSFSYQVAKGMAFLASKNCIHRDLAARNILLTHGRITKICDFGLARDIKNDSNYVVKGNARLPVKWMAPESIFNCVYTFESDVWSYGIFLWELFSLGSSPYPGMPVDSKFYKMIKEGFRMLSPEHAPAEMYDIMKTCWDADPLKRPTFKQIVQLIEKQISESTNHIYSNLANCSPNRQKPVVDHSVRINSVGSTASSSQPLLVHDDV"}, "Flt-4": {"target": "Flt-4 (Homo sapiens, UniProt P35916)", "sequence (P35916 25-1363, species assumed)": "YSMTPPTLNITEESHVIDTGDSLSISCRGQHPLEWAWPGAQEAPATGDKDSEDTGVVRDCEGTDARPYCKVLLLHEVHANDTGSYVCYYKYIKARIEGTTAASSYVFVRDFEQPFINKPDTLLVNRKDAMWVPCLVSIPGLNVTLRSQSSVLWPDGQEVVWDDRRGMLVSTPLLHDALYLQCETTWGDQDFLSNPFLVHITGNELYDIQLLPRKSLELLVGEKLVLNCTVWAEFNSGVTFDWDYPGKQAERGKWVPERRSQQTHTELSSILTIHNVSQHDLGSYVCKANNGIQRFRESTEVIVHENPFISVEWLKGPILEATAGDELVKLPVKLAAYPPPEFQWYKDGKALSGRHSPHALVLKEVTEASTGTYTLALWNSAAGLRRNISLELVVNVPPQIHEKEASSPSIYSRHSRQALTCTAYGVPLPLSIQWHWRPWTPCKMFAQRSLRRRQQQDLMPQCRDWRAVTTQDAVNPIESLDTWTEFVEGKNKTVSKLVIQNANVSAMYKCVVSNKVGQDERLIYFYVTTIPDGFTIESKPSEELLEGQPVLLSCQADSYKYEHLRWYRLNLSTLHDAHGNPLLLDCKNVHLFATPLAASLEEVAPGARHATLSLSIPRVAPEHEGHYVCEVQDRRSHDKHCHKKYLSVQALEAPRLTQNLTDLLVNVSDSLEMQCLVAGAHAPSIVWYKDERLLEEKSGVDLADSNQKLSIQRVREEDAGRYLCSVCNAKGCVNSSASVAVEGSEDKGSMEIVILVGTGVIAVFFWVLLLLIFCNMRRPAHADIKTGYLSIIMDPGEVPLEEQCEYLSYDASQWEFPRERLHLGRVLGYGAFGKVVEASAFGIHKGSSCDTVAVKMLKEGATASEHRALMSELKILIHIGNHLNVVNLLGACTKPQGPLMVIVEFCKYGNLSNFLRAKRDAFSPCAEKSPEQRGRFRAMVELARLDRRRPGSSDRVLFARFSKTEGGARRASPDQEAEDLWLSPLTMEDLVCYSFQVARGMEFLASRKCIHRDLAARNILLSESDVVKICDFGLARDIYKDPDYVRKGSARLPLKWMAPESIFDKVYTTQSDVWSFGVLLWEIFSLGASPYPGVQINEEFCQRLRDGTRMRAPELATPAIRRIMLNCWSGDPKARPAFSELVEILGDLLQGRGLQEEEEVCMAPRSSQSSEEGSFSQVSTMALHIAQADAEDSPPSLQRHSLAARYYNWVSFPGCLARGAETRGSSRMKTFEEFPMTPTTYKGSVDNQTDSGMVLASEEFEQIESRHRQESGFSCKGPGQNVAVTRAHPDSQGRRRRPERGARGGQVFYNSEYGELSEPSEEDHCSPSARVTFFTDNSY"}, "Flt-1": {"target": "Flt-1 (Homo sapiens, UniProt P17948)", "sequence (P17948 27-1338, species assumed)": "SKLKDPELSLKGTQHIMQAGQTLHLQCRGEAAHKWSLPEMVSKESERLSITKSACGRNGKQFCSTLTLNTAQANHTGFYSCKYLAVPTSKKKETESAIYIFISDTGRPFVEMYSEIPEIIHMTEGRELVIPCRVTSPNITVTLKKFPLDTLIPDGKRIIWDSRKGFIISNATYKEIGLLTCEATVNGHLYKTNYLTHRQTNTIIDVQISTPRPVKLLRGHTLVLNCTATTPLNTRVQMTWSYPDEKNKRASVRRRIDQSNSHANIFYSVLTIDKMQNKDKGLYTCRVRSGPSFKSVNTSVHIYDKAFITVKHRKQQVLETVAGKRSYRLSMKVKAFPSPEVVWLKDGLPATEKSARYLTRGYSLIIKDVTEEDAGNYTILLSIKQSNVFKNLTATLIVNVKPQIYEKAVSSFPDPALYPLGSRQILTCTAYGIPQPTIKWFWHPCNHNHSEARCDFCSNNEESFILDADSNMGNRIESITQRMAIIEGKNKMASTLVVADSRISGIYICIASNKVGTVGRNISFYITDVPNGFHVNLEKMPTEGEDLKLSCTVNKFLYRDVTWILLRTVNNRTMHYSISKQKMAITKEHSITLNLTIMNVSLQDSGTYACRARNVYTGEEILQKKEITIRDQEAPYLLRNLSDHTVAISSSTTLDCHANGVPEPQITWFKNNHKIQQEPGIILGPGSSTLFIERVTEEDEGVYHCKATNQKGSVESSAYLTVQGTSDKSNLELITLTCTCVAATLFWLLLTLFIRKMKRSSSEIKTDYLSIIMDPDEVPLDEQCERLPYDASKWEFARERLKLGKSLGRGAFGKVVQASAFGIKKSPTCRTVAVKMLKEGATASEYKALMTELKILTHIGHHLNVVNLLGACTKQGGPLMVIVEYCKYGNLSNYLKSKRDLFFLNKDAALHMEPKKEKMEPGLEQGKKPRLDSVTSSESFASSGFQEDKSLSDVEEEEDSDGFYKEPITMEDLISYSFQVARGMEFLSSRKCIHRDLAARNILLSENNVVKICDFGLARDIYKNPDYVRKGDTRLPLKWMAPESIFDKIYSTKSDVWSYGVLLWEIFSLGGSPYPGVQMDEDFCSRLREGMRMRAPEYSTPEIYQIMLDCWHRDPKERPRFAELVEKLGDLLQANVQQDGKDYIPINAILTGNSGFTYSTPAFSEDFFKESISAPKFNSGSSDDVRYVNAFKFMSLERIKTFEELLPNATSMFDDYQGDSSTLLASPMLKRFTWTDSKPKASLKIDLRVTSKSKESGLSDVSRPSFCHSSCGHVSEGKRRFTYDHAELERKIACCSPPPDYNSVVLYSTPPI"}},
  "data": [
    {"smiles": "Clc1ccc(Nc2nnc(Cc3ccncc3)c3ccccc23)cc1", "note": "[ZK222584, 1-(4-chloroanilino)-4-(4-pyridylmethyl)phthalazine]", "values": [
      {"measurement": "activity against c-Kit", "setting": "c-Kit", "result": "has activity"},
      {"measurement": "inhibition of Flt-4", "setting": "Flt-4", "result": "can also inhibit"},
      {"measurement": "inhibition of Flt-1", "setting": "Flt-1", "result": "can also inhibit"}
    ]}
  ]
}
